ChEMBL document CHEMBL4680144, “N-thiadiazole-4-hydroxy-2-quinolone-3-carboxamides bearing heteroaromatic rings as novel antibacterial agents: Design, synthesis, biological evaluation and target identification” (Eur J Med Chem, 2020)
Values after ≈ are worked out from the molar mass of the structure shown. Active and inactive are the calls of the source. The calls are words filed in the database; no cut-off is given here.

Assays:
Staphylococcus aureus [1] = assay: Potency index, ratio of vancomycin MIC to test compound MIC for antibacterial activity against methicillin-resistant Staphylococcus aureus clinical isolate 15-6 assessed as inhibition of bacterial growth incubated for 18 to 24 hrs by broth microdilution method; assay type: functional; conditions: time 18-24 hrs
Staphylococcus aureus [2] = assay: Antibacterial activity against methicillin-resistant Staphylococcus aureus clinical isolate 15-8 assessed as inhibition of bacterial growth incubated for 18 to 24 hrs by broth microdilution method; assay type: functional; conditions: time 18-24 hrs
[3] = biological target: DNA topoisomerase 4 subunit B (Staphylococcus aureus, UniProt P0C1S7); assay: Inhibition of Staphylococcus aures ParE using pBR322 DNA as substrate in presence of ATP
DNA topoisomerase 4 subunit B, sequence (P0C1S7 whole entry): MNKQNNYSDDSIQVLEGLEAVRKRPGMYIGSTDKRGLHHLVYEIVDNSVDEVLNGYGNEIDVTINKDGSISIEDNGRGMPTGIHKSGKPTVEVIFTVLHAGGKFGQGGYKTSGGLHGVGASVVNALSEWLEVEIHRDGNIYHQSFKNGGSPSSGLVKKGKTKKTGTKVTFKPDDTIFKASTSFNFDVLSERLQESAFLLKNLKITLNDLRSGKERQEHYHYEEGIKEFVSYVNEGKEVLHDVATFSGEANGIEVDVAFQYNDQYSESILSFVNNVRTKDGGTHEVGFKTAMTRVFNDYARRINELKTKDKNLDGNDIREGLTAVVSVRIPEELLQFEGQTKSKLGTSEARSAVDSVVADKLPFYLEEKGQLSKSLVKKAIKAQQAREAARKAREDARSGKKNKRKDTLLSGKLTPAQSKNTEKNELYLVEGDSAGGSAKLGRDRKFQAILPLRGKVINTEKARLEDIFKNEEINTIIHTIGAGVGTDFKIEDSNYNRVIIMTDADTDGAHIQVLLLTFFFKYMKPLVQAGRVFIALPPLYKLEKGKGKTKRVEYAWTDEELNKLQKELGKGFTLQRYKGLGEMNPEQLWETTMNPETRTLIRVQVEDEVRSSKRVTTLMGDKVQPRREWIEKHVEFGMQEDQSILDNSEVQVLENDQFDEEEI

Enterococcus faecium [4] = assay: Potency index, ratio of vancomycin MIC to test compound MIC for antibacterial activity against Enterococcus faecium clinical isolate 15-2 assessed as inhibition of bacterial growth incubated for 18 to 24 hrs by broth microdilution method; assay type: functional; conditions: time 18-24 hrs
Staphylococcus aureus [5] = assay: Bactericidal activity against methicillin-resistant Staphylococcus aureus clinical isolate 15-1 assessed as reduction in log10CFU at 8 times MIC measured over 24 hrs by time kill kinetics analysis; assay type: functional
Enterococcus faecalis [6] = assay: Antibacterial activity against vancomycin-resistant Enterococcus faecalis ATCC 700802 assessed as inhibition of bacterial growth incubated for 18 to 24 hrs by broth microdilution method; assay type: functional; conditions: time 18-24 hrs
Staphylococcus aureus [7] = assay: Potency index, ratio of vancomycin MIC to test compound MIC for antibacterial activity against methicillin-resistant Staphylococcus aureus clinical isolate 15-7 assessed as inhibition of bacterial growth incubated for 18 to 24 hrs by broth microdilution method; assay type: functional; conditions: time 18-24 hrs
Enterococcus faecium [8] = assay: Potency index, ratio of vancomycin MIC to test compound MIC for antibacterial activity against Enterococcus faecium clinical isolate 15-1 assessed as inhibition of bacterial growth incubated for 18 to 24 hrs by broth microdilution method; assay type: functional; conditions: time 18-24 hrs
Staphylococcus aureus [9] = assay: Potency index, ratio of vancomycin MIC to test compound MIC for antibacterial activity against methicillin-resistant Staphylococcus aureus clinical isolate 15-8 assessed as inhibition of bacterial growth incubated for 18 to 24 hrs by broth microdilution method; assay type: functional; conditions: time 18-24 hrs
Staphylococcus aureus [10] = assay: Antibacterial activity against methicillin-resistant Staphylococcus aureus clinical isolate 15-9 assessed as inhibition of bacterial growth incubated for 18 to 24 hrs by broth microdilution method; assay type: functional; conditions: time 18-24 hrs
Staphylococcus aureus [11] = assay: Potency index, ratio of vancomycin MIC to test compound MIC for antibacterial activity against methicillin-resistant Staphylococcus aureus clinical isolate 15-3 assessed as inhibition of bacterial growth incubated for 18 to 24 hrs by broth microdilution method; assay type: functional; conditions: time 18-24 hrs
[12] = Inhibition of Staphylococcus aureus Gyrase B using linear pBR322 DNA as substrate incubated for 30 mins in presence of ATP by ADP-Glo assay
Enterococcus faecalis [13] = assay: Potency index, ratio of vancomycin MIC to test compound MIC for antibacterial activity against Enterococcus faecalis clinical isolate 15-1 assessed as inhibition of bacterial growth incubated for 18 to 24 hrs by broth microdilution method; assay type: functional; conditions: time 18-24 hrs
[14] = AUCinfinity in Kunming mouse at 10 mg/kg, po by HPLC analysis; assay type: ADME, organism-based; design: time infinity, route oral, dose 10 mg/kg; conditions: in vivo
Staphylococcus aureus [15] = assay: In vivo antibacterial activity against methicillin-resistant Staphylococcus aureus clinical isolate 15-1 infected in Kunming mouse assessed as protection from systemic infection up to 50 mg/kg, po administered twice after bacterial infection; assay type: functional, organism-based; conditions: dose mg/kg <=50
Staphylococcus aureus [16] = assay: (§1) In vivo antibacterial activity against methicillin resistant Staphylococcus aureus clinical isolate 15-1 infected in kunming mouse assessed as animal survival rate at 3 mg/kg, po administered 6 hrs prior to bacterial infection and at 0 and 6 hrs post infection and measured for 7 days (reference value: 12.5 %); assay type: functional; conditions: 15-1, po, 168 h, time 7 day
Staphylococcus aureus [17] = assay: as §1, with “1” for “3”; assay type: functional; conditions: 15-1, po, 168 h, time 7 day
[18] = system: Staphylococcus epidermidis; assay: Antibacterial activity against methicillin-sensitive Staphylococcus epidermidis clinical isolate 15-4 assessed as inhibition of bacterial growth incubated for 18 to 24 hrs by broth microdilution method; assay type: functional; conditions: time 18-24 hrs
Enterococcus faecalis [19] = assay: Antibacterial activity against vancomycin-resistant Enterococcus faecalis ATCC 51299 assessed as inhibition of bacterial growth incubated for 18 to 24 hrs by broth microdilution method; assay type: functional; conditions: time 18-24 hrs
Enterococcus faecalis [20] = assay: Antibacterial activity against vancomycin-resistant Enterococcus faecalis ATCC 51575 assessed as inhibition of bacterial growth incubated for 18 to 24 hrs by broth microdilution method; assay type: functional; conditions: time 18-24 hrs
[21] = system: Staphylococcus epidermidis; assay: Antibacterial activity against methicillin-resistant Staphylococcus epidermidis clinical isolate 15-3 assessed as inhibition of bacterial growth incubated for 18 to 24 hrs by broth microdilution method; assay type: functional; conditions: time 18-24 hrs
[22] = system: Staphylococcus epidermidis; assay: Antibacterial activity against methicillin-sensitive Staphylococcus epidermidis clinical isolate 15-3 assessed as inhibition of bacterial growth incubated for 18 to 24 hrs by broth microdilution method; assay type: functional; conditions: time 18-24 hrs
Staphylococcus aureus [23] = assay: as §1, with “9” for “3”; assay type: functional; conditions: 15-1, po, 168 h, time 7 day
Staphylococcus aureus [24] = assay: Inhibition of Staphylococcus aureus Gyrase B assessed as reduction in supercoiled pBR322 DNA production incubated for 30 mins by ethidium bromide staining based agarose gel electrophoresis method; conditions: dose 0.1-100 µM
[25] = system: Staphylococcus epidermidis; assay: Antibacterial activity against methicillin-resistant Staphylococcus epidermidis clinical isolate 15-1 assessed as inhibition of bacterial growth incubated for 18 to 24 hrs by broth microdilution method; assay type: functional; conditions: time 18-24 hrs

CCn1c(=O)c(C(=O)Nc2nnc(-c3nccs3)s2)c(O)c2ccccc21
Ratio (Staphylococcus aureus [1]): 2 | MIC (Staphylococcus aureus [2]): 0.5 µg/mL (≈ 1.25 µM) | IC50 [3]: > 100000 nM | Ratio (Enterococcus faecium [4]): 2 | Activity (Staphylococcus aureus [5]): 3 log10CFU/ml | MIC (Enterococcus faecalis [6]): 0.5 µg/mL (≈ 1.25 µM) | Ratio (Staphylococcus aureus [7]): 2 | Ratio (Enterococcus faecium [8]): 2 | Ratio (Staphylococcus aureus [9]): 2 | MIC (Staphylococcus aureus [10]): 0.25 µg/mL (≈ 0.626 µM) | Ratio (Staphylococcus aureus [11]): 2 | IC50 [12]: 150 nM | Ratio (Enterococcus faecalis [13]): 2 | AUC(0-inf) [14]: 2620 ng·h/mL | Activity (Staphylococcus aureus [15]): inactive | survival at 3 mg/kg (Staphylococcus aureus [16]): 50% | survival at 1 mg/kg (Staphylococcus aureus [17]): 37.5% | MIC [18]: 0.5 µg/mL (≈ 1.25 µM) | MIC (Enterococcus faecalis [19]): 0.5 µg/mL (≈ 1.25 µM) | MIC (Enterococcus faecalis [20]): 0.5 µg/mL (≈ 1.25 µM) | MIC [21]: 0.5 µg/mL (≈ 1.25 µM) | MIC [22]: 0.5 µg/mL (≈ 1.25 µM) | survival at 9 mg/kg (Staphylococcus aureus [23]): 87.5% | inhibition (Staphylococcus aureus [24]): Dose-dependent effect | MIC [25]: 0.5 µg/mL (≈ 1.25 µM)
